# From US8901118B2, “Compounds and methods for kinase modulation, and indications therefor” (Plexxikon Inc., priority 2010, dated 2014)
# Assays:
# BCR-FMS BaF3 cells = target: T1, BCR-FMS BaF3 cells (Homo sapiens, UniProt P07333); assay: BaF3 BCR-FMS cell proliferation assay (ATPlite); assay type: cell-based; conditions: read-out: Inhibition of Cell Proliferation IC50, BCR/BaF3 Fms
# T1 construct: fused on or other part: P11274 (Breakpoint cluster region protein)
# T1 sequence (P07333 582-910): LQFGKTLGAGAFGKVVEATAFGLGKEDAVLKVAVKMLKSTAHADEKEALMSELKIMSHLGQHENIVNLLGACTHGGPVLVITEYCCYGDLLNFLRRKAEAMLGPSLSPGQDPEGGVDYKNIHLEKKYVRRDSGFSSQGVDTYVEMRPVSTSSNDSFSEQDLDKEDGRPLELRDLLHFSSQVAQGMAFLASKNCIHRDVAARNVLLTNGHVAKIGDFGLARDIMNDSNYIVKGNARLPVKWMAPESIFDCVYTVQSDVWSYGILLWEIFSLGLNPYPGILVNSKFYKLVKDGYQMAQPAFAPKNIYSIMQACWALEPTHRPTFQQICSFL
# Method in brief: (§1)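 Cells are plated overnight: BaF3 at 10,000/well in G418 medium without WEHI/IL-3, MV-4-11 at 25,000/well in IMDM with 10% FBS. An 8-point 1:3 compound titration (10 μM top) is then added, and plates are incubated 3 days at 37 °C before ATPlite readout and IC50 determination.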
# BCR-NTRK3 BaF3 cells = target: T2, BCR-NTRK3 BaF3 cells (Homo sapiens, UniProt Q16288); assay: BaF3 BCR-NTRK3 cell proliferation assay (ATPlite); assay type: cell-based; conditions: read-out: Inhibition of Cell Proliferation IC50, BCR/BaF3 TrkC
# T2 construct: fused on or other part: P11274 (Breakpoint cluster region protein)
# Method in brief: as §1
# SKNSH cells = assay: SKNSH (human neuroblastoma) cell proliferation assay (ATPlite); assay type: cell-based; conditions: SK-N-SH, read-out: Inhibition of Cell Proliferation IC50, SKNSH
# Method in brief: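 Fms/Trk inhibitor efficacy was tested by proliferation of SKNSH neuroblastoma cells. After 3 days of compound exposure at 37° C. in 5% CO2, 20 μL per well of ATPlite 1 step reagent was added, plates sat 10 minutes at room temperature, and luminescence, proportional to cell number, was read on a Safire reader to derive IC50.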
# TrkA kinase = TrkA kinase (Homo sapiens, UniProt P04629); assay: TrkA kinase biochemical activity assay (AlphaScreen); conditions: 100 μM ATP; read-out: Biochemical Inhibition IC50 TrkA
# Method in brief: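 IC50 values come from AlphaScreen PY20/streptavidin bead signal versus compound concentration. Kinase reaction: 1 ng/well TrkA, 100 μM ATP, 30 nM biotin-(E4Y)10 substrate, Mn2+-containing Hepes buffer pH 7.5, 5% DMSO, 40 min, room temperature; TrkC assayed by the same approach.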
# Sequence of TrkA kinase (P04629 33-796): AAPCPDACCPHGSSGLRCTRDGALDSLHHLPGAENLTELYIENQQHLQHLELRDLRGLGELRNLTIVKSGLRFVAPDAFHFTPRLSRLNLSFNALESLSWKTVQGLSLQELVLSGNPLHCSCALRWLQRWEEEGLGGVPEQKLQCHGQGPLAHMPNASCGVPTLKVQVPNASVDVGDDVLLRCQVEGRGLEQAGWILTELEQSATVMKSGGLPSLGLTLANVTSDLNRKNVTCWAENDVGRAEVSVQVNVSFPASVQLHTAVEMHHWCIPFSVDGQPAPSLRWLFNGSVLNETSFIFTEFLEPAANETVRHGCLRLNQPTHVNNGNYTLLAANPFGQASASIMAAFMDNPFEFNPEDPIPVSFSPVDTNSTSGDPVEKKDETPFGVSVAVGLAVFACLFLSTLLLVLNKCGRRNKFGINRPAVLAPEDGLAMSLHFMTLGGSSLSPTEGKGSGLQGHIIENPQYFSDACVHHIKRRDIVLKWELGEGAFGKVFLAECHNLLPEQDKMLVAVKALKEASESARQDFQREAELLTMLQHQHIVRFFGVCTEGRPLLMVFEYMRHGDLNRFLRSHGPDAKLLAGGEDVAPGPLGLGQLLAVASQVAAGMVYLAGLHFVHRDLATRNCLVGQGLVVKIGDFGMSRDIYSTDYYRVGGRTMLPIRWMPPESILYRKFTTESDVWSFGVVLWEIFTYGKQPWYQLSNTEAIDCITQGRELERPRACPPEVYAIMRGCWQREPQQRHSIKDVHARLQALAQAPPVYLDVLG
# T2 sequence (Q16288 whole entry, the tested form may be a part): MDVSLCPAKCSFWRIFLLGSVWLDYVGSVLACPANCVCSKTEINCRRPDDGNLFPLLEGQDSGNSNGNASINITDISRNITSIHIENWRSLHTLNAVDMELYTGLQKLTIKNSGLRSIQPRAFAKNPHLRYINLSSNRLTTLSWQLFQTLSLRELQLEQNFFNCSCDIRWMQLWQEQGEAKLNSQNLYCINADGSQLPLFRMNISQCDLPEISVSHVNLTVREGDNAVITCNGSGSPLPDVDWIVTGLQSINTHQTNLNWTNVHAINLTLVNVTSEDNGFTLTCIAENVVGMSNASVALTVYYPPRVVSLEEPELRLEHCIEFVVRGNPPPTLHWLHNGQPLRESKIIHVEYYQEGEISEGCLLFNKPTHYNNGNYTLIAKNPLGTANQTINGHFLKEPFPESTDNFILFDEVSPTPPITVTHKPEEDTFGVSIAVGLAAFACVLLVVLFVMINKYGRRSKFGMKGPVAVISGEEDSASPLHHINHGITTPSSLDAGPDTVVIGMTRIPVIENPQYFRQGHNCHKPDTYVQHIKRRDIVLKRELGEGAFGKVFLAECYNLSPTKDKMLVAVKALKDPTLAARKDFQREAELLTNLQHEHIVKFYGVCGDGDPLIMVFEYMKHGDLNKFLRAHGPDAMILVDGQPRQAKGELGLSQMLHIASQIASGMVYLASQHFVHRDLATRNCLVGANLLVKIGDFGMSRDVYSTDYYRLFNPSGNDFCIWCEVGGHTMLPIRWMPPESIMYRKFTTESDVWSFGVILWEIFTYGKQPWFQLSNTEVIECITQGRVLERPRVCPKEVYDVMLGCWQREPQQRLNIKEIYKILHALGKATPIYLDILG
SMILES,IC50 (BCR-FMS BaF3 cells),IC50 (BCR-NTRK3 BaF3 cells),IC50 (SKNSH cells),IC50 (TrkA kinase)
"Cc1cnc2[nH]cc(Cc3cnc(Nc4cc(C5CC5)n[nH]4)nc3)c2c1 [Compound P-3032, (5-Cyclopropyl-2H-pyrazol-3-yl)-[5-(5-methyl-1H-pyrrolo[2,3-b]pyridin-3-ylmethyl)-pyrimidin-2-yl]-amine]",< 1000 nM,< 1000 nM,< 1000 nM,> 1000 nM
"CCn1ccc(Nc2ncc(Cc3c[nH]c4ncc(C)cc34)cn2)n1 [Compound P-3035, (1-Ethyl-1H-pyrazol-3-yl)-[5-(5-methyl-1H-pyrrolo[2,3-b]pyridin-3-ylmethyl)-pyrimidin-2-yl]-amine]",< 100 nM,< 100 nM,< 1000 nM,< 1000 nM
"COc1ccc(Nc2ccc(C(=O)c3c[nH]c4ncc(C)cc34)c(F)n2)cn1 [Compound P-3040, [2-Fluoro-6-(6-methoxy-pyridin-3-ylamino)-pyridin-3-yl]-(5-methyl-1H-pyrrolo[2,3-b]pyridin-3-yl)-methanone]",< 100 nM,< 10 nM,> 1000 nM,< 10 nM
"Cc1ccc(Nc2ccc(Cc3c[nH]c4ncc(Cl)cc34)c(F)n2)cn1 [Compound P-3042, [5-(5-Chloro-1H-pyrrolo[2,3-b]pyridin-3-ylmethyl)-6-fluoro-pyridin-2-yl]-(6-methyl-pyridin-3-yl)-amine]",< 100 nM,< 100 nM,> 1000 nM,< 100 nM
"Cc1cnc2[nH]cc(C(=O)c3ccc(Nc4ccc(C)nc4)nc3F)c2c1 [Compound P-3043, [2-Fluoro-6-(6-methyl-pyridin-3-ylamino)-pyridin-3-yl]-(5-methyl-1H-pyrrolo[2,3-b]pyridin-3-yl)-methanone]",< 100 nM,< 100 nM,< 1000 nM,< 100 nM
"Cc1ccc(Nc2ccc(C(=O)c3c[nH]c4ncc(Cl)cc34)c(F)n2)cn1 [Compound P-3044, (5-Chloro-1H-pyrrolo[2,3-b]pyridin-3-yl)-[2-fluoro-6-(6-methyl-pyridin-3-ylamino)-pyridin-3-yl]-methanone]",< 100 nM,< 100 nM,> 1000 nM,< 100 nM
"CCOc1ccc(Nc2ccc(C(=O)c3c[nH]c4ncc(C)cc34)c(F)n2)cn1 [Compound P-3045, [6-(6-ethoxy-pyridin-3-ylamino)-2-fluoro-pyridin-3-yl]-(5-methyl-1H-pyrrolo[2,3-b]pyridin-3-yl)-methanone]",< 100 nM,< 100 nM,> 25000 nM,< 10 nM
"COc1ccc(Nc2ccc(Cc3c[nH]c4ncnc(C)c34)c(F)n2)cn1 [Compound P-4002, [6-Fluoro-5-(4-methyl-7H-pyrrolo[2,3-d]pyrimidin-5-ylmethyl)-pyridin-2-yl]-(6-methoxy-pyridin-3-yl)-amine]",< 100 nM,< 100 nM,< 100 nM,< 100 nM
"COc1ncnc2[nH]cc(Cc3ccc(Nc4ccc(Cl)nc4)nc3F)c12 [Compound P-4003, (6-Chloro-pyridin-3-yl)-[6-fluoro-5-(4-methoxy-7H-pyrrolo[2,3-d]pyrimidin-5-ylmethyl)-pyridin-2-yl]-amine]",< 100 nM,< 100 nM,> 1000 nM,< 1000 nM
"COc1ncnc2[nH]cc(Cc3ccc(Nc4ccc(C5CC5)nc4)nc3F)c12 [Compound P-4004, (6-Cyclopropyl-pyridin-3-yl)-[6-fluoro-5-(4-methoxy-7H-pyrrolo[2,3-d]pyrimidin-5-ylmethyl)-pyridin-2-yl]-amine]",< 10 nM,< 10 nM,< 1000 nM,< 100 nM
"CCOc1ccc(Nc2ccc(Cc3c[nH]c4ncnc(OC)c34)c(F)n2)cn1 [Compound P-4005, (6-Ethoxy-pyridin-3-yl)-[6-fluoro-5-(4-methoxy-7H-pyrrolo[2,3-d]pyrimidin-5-ylmethyl)-pyridin-2-yl]-amine]",< 10 nM,< 10 nM,< 1000 nM,< 100 nM
"CCOc1ccc(Nc2ccc(Cc3c[nH]c4ncnc(C)c34)c(F)n2)cn1 [Compound P-4006, (6-Ethoxy-pyridin-3-yl)-[6-fluoro-5-(4-methyl-7H-pyrrolo[2,3-d]pyrimidin-5-ylmethyl)-pyridin-2-yl]-amine]",< 10 nM,< 10 nM,< 100 nM,< 100 nM
"CCc1ccc(Nc2ccc(Cc3c[nH]c4ncnc(OC)c34)c(F)n2)cn1 [Compound P-4007, (6-Ethyl-pyridin-3-yl)-[6-fluoro-5-(4-methoxy-7H-pyrrolo[2,3-d]pyrimidin-5-ylmethyl)-pyridin-2-yl]-amine]",< 10 nM,< 10 nM,< 1000 nM,< 10 nM

# The next lines start with the values.
IC50 (BCR-FMS BaF3 cells),IC50 (BCR-NTRK3 BaF3 cells),IC50 (SKNSH cells),IC50 (TrkA kinase),SMILES
< 10 nM,< 10 nM,< 100 nM,< 100 nM,"Cc1cnc2[nH]cc(Cc3cnc(Nc4ccc(C(O)(C(F)(F)F)C(F)(F)F)cc4)nc3)c2c1 [Compound P-3031, 1,1,1,3,3,3-Hexafluoro-2-{4-[5-(5-methyl-1H-pyrrolo[2,3-b]pyridin-3-ylmethyl)-pyrimidin-2-ylamino]-phenyl}-propan-2-ol]"
< 10 nM,< 100 nM,< 1000 nM,< 10 nM,"CSc1ccc(Nc2ncc(Cc3c[nH]c4ncc(C)cc34)cn2)cc1 [Compound P-3033, [5-(5-Methyl-1H-pyrrolo[2,3-b]pyridin-3-ylmethyl)-pyrimidin-2-yl]-(4-methylsulfanyl-phenyl)-amine]"
< 10 nM,< 100 nM,< 1000 nM,< 1000 nM,"Cc1cnc2[nH]cc(Cc3cnc(Nc4ccc(S(C)(=O)=O)cc4)nc3)c2c1 [Compound P-3034, (4-Methanesulfonyl-phenyl)-[5-(5-methyl-1H-pyrrolo[2,3-b]pyridin-3-ylmethyl)-pyrimidin-2-yl]-amine]"
< 10 nM,< 1000 nM,< 20000 nM,< 1000 nM,"CCn1cc(Nc2ncc(Cc3c[nH]c4ncc(C)cc34)cn2)cn1 [Compound P-3036, (1-Ethyl-1H-pyrazol-4-yl)-[5-(5-methyl-1H-pyrrolo[2,3-b]pyridin-3-ylmethyl)-pyrimidin-2-yl]-amine]"
< 10 nM,< 100 nM,> 1000 nM,< 100 nM,"CCOc1ccc(Nc2ccc(Cc3c[nH]c4ncc(C)cc34)c(F)n2)cn1 [Compound P-3039, (6-ethoxy-pyridin-3-yl)-[6-fluoro-5-(5-methyl-1H-pyrrolo[2,3-b]pyridin-3-ylmethyl)-pyridin-2-yl]-amine]"
< 10 nM,< 100 nM,> 1000 nM,< 1000 nM,"Cc1cnc2[nH]cc(Cc3ccc(Nc4ccc(C)nc4)nc3F)c2c1 [Compound P-3041, [6-Fluoro-5-(5-methyl-1H-pyrrolo[2,3-b]pyridin-3-ylmethyl)-pyridin-2-yl]-(6-methyl-pyridin-3-yl)-amine]"
< 10 nM,< 10 nM,< 1000 nM,< 100 nM,"COc1ccc(Nc2ccc(Cc3c[nH]c4ncnc(OC)c34)c(F)n2)cn1 [Compound P-4001, [6-Fluoro-5-(4-methoxy-7H-pyrrolo[2,3-d]pyrimidin-5-ylmethyl)-pyridin-2-yl]-(6-methoxy-pyridin-3-yl)-amine]"
